{"source": "patent US11926611B1", "about": "“2-(2-ethoxyethoxy)-6-phenyl-4,4′-bipyridine-3-carbonitrile as an antimicrobial compound” (KING FAISAL UNIVERSITY, priority 2023, dated 2024)", "key": {"Pseudomonas aeruginosa": {"test_system": "Pseudomonas aeruginosa", "test": "Antimicrobial screening by agar dilution, Pseudomonas aeruginosa", "format": "cell-based", "settings": "after 10, 20, 40 and 60 minutes at all dilutions 1:100, 1:200, 1:400, 1:800", "method": "(§1) The antibacterial properties of the synthesized compound 2-(2-ethoxyethoxy)-6-phenyl-4,4′-bipyridine-3-carbonitrile were studied by the method of agar dilution. Test solutions of each compound was prepared in concentration of 1% using dimethylformamide as a solvent then they are diluted in physiological solution to obtain the final experimental dilutions 1:100, 1:200, 1:400, 1:800. The effect of these substances are compared with furacillin in a controllable study. The testing microbes used were gram positive bacteria Staphylococcus aureus, gram negative bacteria Pseudomonas aeruginosa and Escherichia coli and Candida albicans fungus. The experiments used for this survey were meat-pentonlu agar (EPA) for cultivation of bacteria and Saburo environment for the fungus. Each experiment used 1 mL of test solution on each plate […]. Two drops of emulsified with microbes feel were added. All experimental samples were taken from the agar after 10, 20, 40, 60 minutes in the environment on the basis of Patrk planted. The bacteria were cultivated at a temperature of 37° C. for 1 day and the mushroom was kept in a thermostat for […] at a temperature of 28° C. Then results were checked."}, "Candida albicans": {"test_system": "Candida albicans", "test": "Antimicrobial screening by agar dilution, Candida albicans", "format": "cell-based", "settings": "after 10, 20, 40 and 60 minutes at all dilutions 1:100, 1:200, 1:400, 1:800", "method": "as §1"}, "Escherichia coli": {"test_system": "Escherichia coli", "test": "Antimicrobial screening by agar dilution, Escherichia coli", "format": "cell-based", "settings": "after 10, 20, 40 and 60 minutes at all dilutions 1:100, 1:200, 1:400, 1:800", "method": "as §1"}, "Staphylococcus aureus": {"test_system": "Staphylococcus aureus", "test": "Antimicrobial screening by agar dilution, Staphylococcus aureus", "format": "cell-based", "settings": "after 10, 20, 40 and 60 minutes at all dilutions 1:100, 1:200, 1:400, 1:800", "method": "as §1"}}}
{"smiles": "CCOCCOc1nc(-c2ccccc2)cc(-c2ccncc2)c1C#N", "note": "[2-(2-ethoxyethoxy)-6-phenyl-4,4′-bipyridine-3-carbonitrile]", "values": [{"measurement": "inhibition activity (in words)", "setting": "Pseudomonas aeruginosa", "value": "highest inhibition activity"}, {"measurement": "inhibition activity (in words)", "setting": "Candida albicans", "value": "highest inhibition activity"}, {"measurement": "melting point", "value": "241 to 243", "unit": "°C"}, {"measurement": "inhibition activity (in words)", "setting": "Escherichia coli", "value": "highest inhibition activity"}, {"measurement": "inhibition activity (in words)", "setting": "Staphylococcus aureus", "value": "highest inhibition activity"}]}
